*1 amine or outer side, *2 acyl side, *3 side chain or, on linkers, in order; H or OH if unused. Where a SMILES comes first, the peptide text is derived from it. Bridges are numbered along the chain shown (N, C = ends). Roman numbers before positions name the chains, in order. [ ]: non-standard residue; d: D form. Actinocin(1to9) = Cc1c2oc3c(C)ccc(C(=O)[*:2])c3nc-2c(C(=O)[*:1])c(N)c1=O; NMeV = CN[C@H](C(=O)O)C(C)C; Sar = CNCC(=O)O
Tests used:
[1] = DRUGMATRIX: Atrial Natriuretic Factor (ANF) radioligand binding (ligand: [125I] ANF (rat)); format: cell membranes, Cavia porcellus, Dunkin-Hartley, Adrenal gland, Membrane; conditions: Not Active = under 50% inhibition at 10 µM
[2] = DRUGMATRIX: Tumor Necrosis Factor (TNF), Non-Selective radioligand binding (ligand: [125I] TNF-alpha); format: cell membranes, Membrane; conditions: u-937; Not Active = under 50% inhibition at 10 µM
[3] = DRUGMATRIX: Interleukin IL-1 radioligand binding (ligand: [125I] interleukin 1beta); format: cell membranes, Membrane; conditions: nih3t3; Not Active = under 50% inhibition at 10 µM
[4] = target: Melanocortin receptor 5 (Homo sapiens, UniProt P33032); format: cell membranes, HEK293, Membrane; conditions: hek293; note: in other assays of this panel Not Active means under 50% inhibition at 10 µM
[5] = target: T1, Adenosine receptor A1 (Homo sapiens, UniProt P30542); format: cell membranes, CHO, Membrane; conditions: cho;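 note: radioligand binding assay at the adenosine A1 receptor, with DPCPX serving as the labelled ligand; in other assays of this panel Not Active means under 50% inhibition at 10 µM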
T1 sequence (P30542 whole entry): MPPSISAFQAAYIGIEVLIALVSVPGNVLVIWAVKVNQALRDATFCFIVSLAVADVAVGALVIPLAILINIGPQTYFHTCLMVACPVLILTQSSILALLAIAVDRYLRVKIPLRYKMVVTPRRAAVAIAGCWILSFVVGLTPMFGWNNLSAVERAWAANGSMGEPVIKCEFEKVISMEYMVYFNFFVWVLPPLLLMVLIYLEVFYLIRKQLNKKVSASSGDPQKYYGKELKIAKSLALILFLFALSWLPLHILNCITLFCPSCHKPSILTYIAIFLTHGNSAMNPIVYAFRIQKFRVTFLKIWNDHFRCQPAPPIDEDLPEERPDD

[6] = target: T2, Adenosine receptor A3 (Homo sapiens, UniProt P0DMS8); format: cell membranes, CHO-K1, Membrane;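 note: radioligand binding assay with AB-MECA serving as the labeled ligand; in other assays of this panel Not Active means under 50% inhibition at 10 µM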
T2 sequence (P0DMS8 whole entry): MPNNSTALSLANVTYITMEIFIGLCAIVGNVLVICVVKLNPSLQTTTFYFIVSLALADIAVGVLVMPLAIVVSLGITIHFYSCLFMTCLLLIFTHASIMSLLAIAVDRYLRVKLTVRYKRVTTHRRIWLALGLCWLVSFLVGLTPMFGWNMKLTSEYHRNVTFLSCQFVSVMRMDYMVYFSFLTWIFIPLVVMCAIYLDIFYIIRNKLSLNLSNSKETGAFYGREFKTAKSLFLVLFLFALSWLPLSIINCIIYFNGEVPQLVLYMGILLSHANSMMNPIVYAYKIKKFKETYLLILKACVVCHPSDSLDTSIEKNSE

[7] = target: Cytochrome P450 2E1 (Homo sapiens, UniProt P05181); conditions: bti-tn-5b1-4; note: in other assays of this panel Not Active means under 50% inhibition at 10 µM
Cytochrome P450 2E1, sequence (P05181 whole entry): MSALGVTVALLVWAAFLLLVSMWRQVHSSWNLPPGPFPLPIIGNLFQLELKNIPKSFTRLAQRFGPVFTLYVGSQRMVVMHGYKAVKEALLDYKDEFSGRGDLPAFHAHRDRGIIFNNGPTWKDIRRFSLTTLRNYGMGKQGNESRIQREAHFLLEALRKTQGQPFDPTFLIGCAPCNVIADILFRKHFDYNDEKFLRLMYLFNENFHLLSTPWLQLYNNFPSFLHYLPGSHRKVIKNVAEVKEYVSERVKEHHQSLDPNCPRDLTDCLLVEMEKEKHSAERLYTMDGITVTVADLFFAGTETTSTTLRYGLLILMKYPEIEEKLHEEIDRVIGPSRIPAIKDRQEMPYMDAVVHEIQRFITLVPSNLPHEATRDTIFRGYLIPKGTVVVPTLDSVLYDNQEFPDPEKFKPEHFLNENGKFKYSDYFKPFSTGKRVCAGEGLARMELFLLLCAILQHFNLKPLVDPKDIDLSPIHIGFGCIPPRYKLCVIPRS

Melanocortin receptor 5, sequence (P33032 whole entry): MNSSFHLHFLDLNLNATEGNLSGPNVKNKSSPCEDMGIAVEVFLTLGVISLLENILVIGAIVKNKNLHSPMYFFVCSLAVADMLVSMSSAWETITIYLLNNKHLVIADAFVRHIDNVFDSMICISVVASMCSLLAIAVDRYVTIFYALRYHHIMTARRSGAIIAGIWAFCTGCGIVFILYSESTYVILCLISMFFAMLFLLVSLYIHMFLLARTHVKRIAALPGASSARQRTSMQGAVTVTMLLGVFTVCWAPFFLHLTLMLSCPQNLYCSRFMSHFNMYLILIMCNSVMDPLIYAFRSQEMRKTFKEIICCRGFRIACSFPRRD

Row | Compound | IC50 [1] | Ki [1] | IC50 [2] | Ki [2] | IC50 [3] | Ki [3] | IC50 [4] | IC50 [5] | IC50 ([6]; cho-k1) | IC50 [7] | Ki [7] | IC50 ([6]; read-out: IC50) [nM] | Ki ([6]; read-out: Ki) [nM]
1 | CC(C)(C)NCC(O)c1cc(Cl)c(N)c(Cl)c1 (stereo not drawn) [CLENBUTEROL] | Not Active | Not Active | Not Active | Not Active | Not Active | Not Active | Not Active | Not Active | Not Active | Not Active | Not Active |  | 
2 | CC(C)(Oc1ccc(Cl)cc1)C(=O)O [CLOFIBRIC ACID] | Not Active | Not Active | Not Active | Not Active | Not Active | Not Active | Not Active | Not Active | Not Active | Not Active | Not Active |  | 
3 | Clc1cccc(Cl)c1NC1=NCCN1 [CLONIDINE] | Not Active | Not Active | Not Active | Not Active | Not Active | Not Active | Not Active | Not Active | Not Active | Not Active | Not Active |  | 
4 | Cc1cc(C(C#N)c2ccc(Cl)cc2)c(Cl)cc1NC(=O)c1cc(I)cc(I)c1O (stereo not drawn) [CLOSANTEL] | Not Active | Not Active | Not Active | Not Active | Not Active | Not Active | Not Active | Not Active |  | Not Active | Not Active | 96 | 54
5 | Cc1onc(-c2ccccc2Cl)c1C(=O)N[C@@H]1C(=O)N2[C@@H]1SC(C)(C)[C@@H]2C(=O)O [CLOXACILLIN] | Not Active | Not Active | Not Active | Not Active | Not Active | Not Active | Not Active | Not Active | Not Active | Not Active | Not Active |  | 
6 | CC1CC(OC(=O)C(O)c2ccccc2)CC(C)(C)C1 (stereo not drawn) [CYCLANDELATE] | Not Active | Not Active | Not Active | Not Active | Not Active | Not Active | Not Active | Not Active | Not Active | Not Active | Not Active |  | 
7 | Cc1c2oc3c(C)ccc(C(=O)N[C@@H]4C(=O)N[C@H](C(C)C)C(=O)N5CCC[C@H]5C(=O)N(C)CC(=O)N(C)[C@@H](C(C)C)C(=O)O[C@@H]4C)c3nc-2c(C(=O)N[C@@H]2C(=O)N[C@H](C(C)C)C(=O)N3CCC[C@H]3C(=O)N(C)CC(=O)N(C)[C@@H](C(C)C)C(=O)O[C@@H]2C)c(N)c1=O [DACTINOMYCIN] (I: T[dV]P[Sar][NMeV] / II: T[dV]P[Sar][NMeV]; ester I:1-I:C, II:1-II:C; linker I:N-II:N via Actinocin(1to9)) | Not Active | Not Active | Not Active | Not Active | Not Active | Not Active | Not Active | Not Active | Not Active | Not Active | Not Active |  | 
8 | Cc1c(O)c(=O)ccn1C [DEFERIPRONE] | Not Active | Not Active | Not Active | Not Active | Not Active | Not Active | Not Active | Not Active | Not Active | Not Active | Not Active |  | 
9 | CNCCCN1c2ccccc2CCc2ccccc21 [DESIPRAMINE] | Not Active | Not Active | Not Active | Not Active | Not Active | Not Active | Not Active | Not Active | Not Active | Not Active | Not Active |  | 
10 | O=c1oc2ccccc2c(O)c1Cc1c(O)c2ccccc2oc1=O [DICUMAROL] | Not Active | Not Active | Not Active | Not Active | Not Active | Not Active | Not Active | Not Active | Not Active | Not Active | Not Active |  | 
11 | C[C@H]1O[C@@H](O[C@H]2[C@@H](O)C[C@H](O[C@H]3[C@@H](O)C[C@H](O[C@H]4CC[C@@]5(C)[C@H](CC[C@@H]6[C@@H]5C[C@@H](O)[C@]5(C)[C@@H](C7=CC(=O)OC7)CC[C@]65O)C4)O[C@@H]3C)O[C@@H]2C)C[C@H](O)[C@@H]1O [DIGOXIN] | Not Active | Not Active | Not Active | Not Active | Not Active | Not Active | Not Active | Not Active | Not Active | Not Active | Not Active |  | 
12 | CC(C)[C@@]1(NC(=O)[C@@H]2C[C@@H]3c4cccc5[nH]cc(c45)C[C@H]3N(C)C2)O[C@@]2(O)[C@@H]3CCCN3C(=O)[C@H](Cc3ccccc3)N2C1=O.CS(=O)(=O)O [DIHYDROERGOCRISTINE MESYLATE] | Not Active | Not Active | Not Active | Not Active | Not Active | Not Active | Not Active | Not Active | Not Active | Not Active | Not Active |  | 
13 | CC(=O)O[C@@]12CO[C@@H]1C[C@H](O)[C@@]1(C)C(=O)[C@H](O)C3=C(C)[C@@H](OC(=O)[C@H](O)[C@@H](NC(=O)OC(C)(C)C)c4ccccc4)C[C@@](O)([C@@H](OC(=O)c4ccccc4)[C@H]21)C3(C)C.O.O.O [DOCETAXEL] | Not Active | Not Active | Not Active | Not Active | Not Active | Not Active | Not Active | Not Active | Not Active | Not Active | Not Active |  | 
14 | COc1cc2nc(N3CCN(C(=O)C4COc5ccccc5O4)CC3)nc(N)c2cc1OC (stereo not drawn) [DOXAZOSIN] | Not Active | Not Active | Not Active | Not Active | Not Active | Not Active | Not Active | Not Active | Not Active | Not Active | Not Active |  | 
15 | C[C@H]1c2cccc(O)c2C(=O)C2=C(O)[C@]3(O)C(=O)C(C(N)=O)=C(O)[C@@H](N(C)C)[C@@H]3[C@@H](O)[C@@H]21.O [DOXYCYCLINE] | Not Active | Not Active | Not Active | Not Active | Not Active | Not Active | Not Active | Not Active | Not Active | Not Active | Not Active |  | 
16 | O=C(CCCN1CC=C(n2c(=O)[nH]c3ccccc32)CC1)c1ccc(F)cc1 [DROPERIDOL] | Not Active | Not Active | Not Active | Not Active | Not Active | Not Active | Not Active | Not Active | Not Active | Not Active | Not Active |  | 
17 | CC(C)[C@H]1C(=O)N2CCC[C@H]2[C@]2(O)O[C@](NC(=O)[C@@H]3C=C4c5cccc6[nH]cc(c56)C[C@H]4N(C)C3)(C(C)C)C(=O)N12 [ERGOCORNINE] | Not Active | Not Active | Not Active | Not Active | Not Active | Not Active | Not Active | Not Active | Not Active | Not Active | Not Active |  | 

— ChEMBL document CHEMBL1909046, “DrugMatrix in vitro pharmacology data”
